Assay results reported in patent US20040137472A1, “Methods and compositions for modification of splicing of pre-mRNA” (priority 2002, published 2004).

Experiments:
Assay type in all cases: cell-based, human
IVS2-705U EGFP cells [1] = assay: EGFP fluorescence screen by fluorescence microscopy, IVS2-705U EGFP HeLa cells; parameters: key: Compounds causing moderate to high levels of fluorescence with no autofluorescence of the compound itself are indicated by a (+) sign; A (+/−) indicates compounds causing faint levels of fluorescence or compounds that have some autofluorescence in addition to causing the cells to fluoresce; A (−) sign indicates that the compounds did not cause detectable levels of fluorescence; details: 50 μM compound, 24 hours, detected by eye
Protocol: The screen was carried out using HeLa cell lines stably transfected with an EGFP (enhanced green fluorescent protein) construct. This construct contains the EGFP cDNA disrupted by intron 2 of the β-globin gene, containing thalassemic mutations (FIG. 1), and was under the control of the CMV promoter. Two different cell lines were generated with this construct, one with a mutation at position 654 (IVS2-654 EGFP) and another with a mutation at position 705 (IVS2-705U EGFP).
For both constructs, disruption of EGFP with mutated intron 2 results in a lack of production of a functional EGFP protein. When correct splicing is restored to a cell, intron 2 is excised and functional EGFP protein is generated (Sazani (2001) Nucl. Acids Res. 29:3965-3974).
Cells were plated in black well, clear bottom 96-well plates at 13×10^4 cells/ml, 100 μl per well. The rows on the ends of the plate (rows 1 and 12) were control rows and the remaining rows were treated with compounds. In the control rows, positive control EGFP cells were alternated with untreated cells serving as negative controls. […]
Twenty-four hours after treatment, the medium was removed and the cells were washed 2 times in 150 μl 1× PBS. […] Cells were then examined on an Olympus inverted fluorescence microscope at 10× or 20× using a FITC filter. Fluorescence was detected by eye. Attempts to utilize a fluorescence plate reader failed as the plate reader was not sensitive enough to detect the expected low levels of EGFP fluorescence.
The criteria used to designate a compound as a positive were as follows. […] Additionally, the fluorescence had to be mostly uniform throughout all of the cells. This criterion was complicated by the fact that many of the compounds had varying levels of autofluorescence, and therefore were difficult to distinguish from those that caused cellular fluorescence. […]
The IVS2-705U and IVS2-654 EGFP cell lines were treated a second time with the 132 positive compounds and analyzed on a fluorescence microscope. […]

IVS2-705 β-globin cells = assay: RT-PCR analysis of splicing correction, IVS2-705 β-globin cells; parameters: key: Compounds causing correction by RT-PCR. are indicated by a (+) sign; details: 50 μM compound
Description: β-globin cell lines were obtained by stable transfection of HeLa cells with the human β-globin gene carrying thalassemic mutations at either IVS2-654 or IVS2-705. The cloned genes were under the control of the immediate early cytomegalovirus promoter (Sierakowska, et al., (1996) Proc. Natl. Acad. Sci. USA 93:12840-12844). The IVS2-654 EGFP cell line is well known in the art (Sazani (2001) Nucl. Acids Res. 29:3965-3974). The IVS2-705U EGFP cell line was made in the same manner using a different plasmid. HeLa cells were grown in SMEM with 5% horse serum, 5% fetal calf serum, 1% L-glutamine and 1% gentamicin/kanamycin.
(§1) A RT-PCR-based assay was performed to determine if the fluorescence observed on the EGFP cells was a result of the compounds shifting splicing. […] Therefore, primers located in exons 2 and 3 are used to PCR amplify the products, and the size difference is detected by running the products on an acrylamide gel.
After the IVS2-705U and IVS2-654 EGFP cells were re-treated with positive compounds and examined on the microscope, total RNA was isolated using TRI-REAGENT® (Molecular Research Center, Inc., Cincinnati, Ohio). A total of 200 ng of RNA was analyzed by reverse transcription polymerase chain reaction (RT-PCR) using rTth DNA polymerase (Perkin-Elmer, Boston, Mass.) according to manufacturer's instructions. […]

IVS2-705U EGFP cells [2] = assay: RT-PCR analysis of splicing correction, IVS2-705U EGFP cells; parameters: key: Compounds causing correction by RT-PCR. are indicated by a (+) sign; details: 50 μM compound
Protocol: as §1
After the IVS2-705U and IVS2-654 EGFP cells were re-treated with positive compounds and examined on the microscope, total RNA was isolated using TRI-REAGENT® (Molecular Research Center, Inc., Cincinnati, Ohio). A total of 200 ng of RNA was analyzed by reverse transcription polymerase chain reaction (RT-PCR) using rTth DNA polymerase (Perkin-Elmer, Boston, Mass.) according to manufacturer's instructions. The reverse transcription step was carried out at 70° C. for 15 minutes. The PCR step included 1 cycle, 95° C., 3 minutes: 18 cycles. 95° C., 1 minute, 65° C., 1 minute. For β-globin mRNA amplification, the reverse primer spanned positions 6-28 of exon 3 and the forward primer spanned positions 21-43 of exon 2 of the human β-globin gene. […]
FIG. 3 provides an example of a polyacrylamide gel with RT-PCR products from EGFP cells treated with several positive compounds. The amount of correction was determined by comparing the ratio of the aberrant band and the correct band.

| SMILES | 705U EGFP Fluorescence (IVS2-705U EGFP cells [1]) | 705 β-globin RT-PCR (IVS2-705 β-globin cells) | 705U EGFP RT-PCR (IVS2-705U EGFP cells [2]) |
| --- | --- | --- | --- |
| CCOc1cccc(CN2CCN(c3ccc(F)cc3)CC2)c1O [AA11] | − | + |  |
| COc1ccc(CCN(C)Cc2cc(OC)c(OC)cc2Br)cc1OC [Compound A5] | +/− |  |  |
| CC(C)(C)c1ccc(C(=O)NNC(=O)Cc2ccc(-c3ccccc3)cc2)cc1 [Compound E11] | − | + | + |
